Reference: PubChem BioAssay AID2060883 (Molecular Pharmacology Branch, DTP, NCI, 2025)
One block for each molecule: values may come before it.

System: 843782-103-R-J1-PDC complex spheroid viability
Experiment: Anticancer human tumor 843782-103-R-J1-PDC patient-derived lung adenocarcinoma cell line growth inhibition [RAS]
Details: for IC50: curve of first compound; for viability, T/C: stronger effect = lower value
Summary of the method: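 Tumour cells grown as complex spheroids with HUVEC endothelial cells and mesenchymal stem cells, treated with RAS pathway inhibitor combinations. Each agent spans half-log steps from near clinical Cmax, or 10 microM where Cmax is unknown.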

[1] = second compound 0.00316 µM, first compound 0.00316 µM
[2] = second compound 0.00316 µM, first compound 0.01 µM
[3] = second compound 0.00316 µM, first compound 0.0316 µM
[4] = second compound 0.00316 µM, first compound 0.1 µM
[5] = second compound 0.00316 µM, first compound 0.316 µM
[6] = second compound 0.00316 µM, first compound 1 µM
[7] = second compound 0.01 µM, first compound 0.00316 µM
[8] = second compound 0.01 µM, first compound 0.01 µM
[9] = second compound 0.01 µM, first compound 0.0316 µM
[10] = second compound 0.01 µM, first compound 0.1 µM
[11] = second compound 0.01 µM, first compound 0.316 µM
[12] = second compound 0.01 µM, first compound 1 µM
[13] = second compound 0.0316 µM, first compound 0.00316 µM
[14] = second compound 0.0316 µM, first compound 0.01 µM
[15] = second compound 0.0316 µM, first compound 0.0316 µM
[16] = second compound 0.0316 µM, first compound 0.1 µM
[17] = second compound 0.0316 µM, first compound 0.316 µM
[18] = second compound 0.0316 µM, first compound 1 µM
[19] = second compound 0.1 µM, first compound 0.00316 µM
[20] = second compound 0.1 µM, first compound 0.01 µM
[21] = second compound 0.1 µM, first compound 0.0316 µM
[22] = second compound 0.1 µM, first compound 0.1 µM
[23] = second compound 0.1 µM, first compound 0.316 µM
[24] = second compound 0.1 µM, first compound 1 µM
[25] = second compound 0.316 µM, first compound 0.00316 µM
[26] = second compound 0.316 µM, first compound 0.01 µM
[27] = second compound 0.316 µM, first compound 0.0316 µM
[28] = second compound 0.316 µM, first compound 0.1 µM
[29] = second compound 0.316 µM, first compound 0.316 µM
[30] = second compound 0.316 µM, first compound 1 µM
[31] = second compound 1 µM, first compound 0.00316 µM
[32] = second compound 1 µM, first compound 0.01 µM
[33] = second compound 1 µM, first compound 0.0316 µM
[34] = second compound 1 µM, first compound 0.1 µM
[35] = second compound 1 µM, first compound 0.316 µM
[36] = second compound 1 µM, first compound 1 µM
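Further: viability read after seven days of compound exposure.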

- IC50 (second compound 0.0316 µM): 22.6 nM
- IC50 (second compound 0.1 µM): 17.4 nM
- IC50 (second compound 0.316 µM): 20.1 nM
- IC50 (second compound 1 µM): 7.9 nM
- IC50 (second compound 3.16 µM): 5.68 nM
- IC50 (second compound 10 µM): 0.949 nM
SMILES: CC1(C)CCC(Nc2ncc(C(F)(F)F)c(-c3c[nH]c4c(P(C)(C)=O)c(C#N)ccc34)n2)CN1 (stereo not drawn) + C#Cc1c(F)ccc2cc(O)cc(-c3ncc4c(N5CC6CCC(C5)N6)nc(OCC56CCCN5CC(F)C6)nc4c3F)c12
- viability, T/C (second compound 0.0316 µM, first compound 0.000949 µM): 102%
- viability, T/C (second compound 0.0316 µM, first compound 0.003 µM): 93.6%
- viability, T/C (second compound 0.0316 µM, first compound 0.00949 µM): 72.1%
- viability, T/C (second compound 0.0316 µM, first compound 0.03 µM): 44.9%
- viability, T/C (second compound 0.0316 µM, first compound 0.0949 µM): 21.1%
- viability, T/C (second compound 0.0316 µM, first compound 0.3 µM): 22.7%
- viability, T/C (second compound 0.1 µM, first compound 0.000949 µM): 103%
- viability, T/C (second compound 0.1 µM, first compound 0.003 µM): 88.1%
- viability, T/C (second compound 0.1 µM, first compound 0.00949 µM): 58.6%
- viability, T/C (second compound 0.1 µM, first compound 0.03 µM): 42.5%
- viability, T/C (second compound 0.1 µM, first compound 0.0949 µM): 26.8%
- viability, T/C (second compound 0.1 µM, first compound 0.3 µM): 23.1%
- viability, T/C (second compound 0.316 µM, first compound 0.000949 µM): 101%
- viability, T/C (second compound 0.316 µM, first compound 0.003 µM): 76.2%
- viability, T/C (second compound 0.316 µM, first compound 0.00949 µM): 58.1%
- viability, T/C (second compound 0.316 µM, first compound 0.03 µM): 51.5%
- viability, T/C (second compound 0.316 µM, first compound 0.0949 µM): 25.6%
- viability, T/C (second compound 0.316 µM, first compound 0.3 µM): 24.6%
- viability, T/C (second compound 1 µM, first compound 0.000949 µM): 88.5%
- viability, T/C (second compound 1 µM, first compound 0.003 µM): 69%
- viability, T/C (second compound 1 µM, first compound 0.00949 µM): 46.2%
- viability, T/C (second compound 1 µM, first compound 0.03 µM): 30.9%
- viability, T/C (second compound 1 µM, first compound 0.0949 µM): 26.4%
- viability, T/C (second compound 1 µM, first compound 0.3 µM): 20.5%
- viability, T/C (second compound 3.16 µM, first compound 0.000949 µM): 61%
- viability, T/C (second compound 3.16 µM, first compound 0.003 µM): 57.4%
- viability, T/C (second compound 3.16 µM, first compound 0.00949 µM): 44%
- viability, T/C (second compound 3.16 µM, first compound 0.03 µM): 29.2%
- viability, T/C (second compound 3.16 µM, first compound 0.0949 µM): 24.9%
- viability, T/C (second compound 3.16 µM, first compound 0.3 µM): 24.6%
- viability, T/C (second compound 10 µM, first compound 0.000949 µM): 46.6%
- viability, T/C (second compound 10 µM, first compound 0.003 µM): 44.9%
- viability, T/C (second compound 10 µM, first compound 0.00949 µM): 37.4%
- viability, T/C (second compound 10 µM, first compound 0.03 µM): 59.2%
- viability, T/C (second compound 10 µM, first compound 0.0949 µM): 26%
- viability, T/C (second compound 10 µM, first compound 0.3 µM): 21.8%

- IC50 (second compound 0.00316 µM): 320 nM
- IC50 (second compound 0.01 µM): 352 nM
- IC50 (second compound 0.0316 µM): 539 nM
- IC50 (second compound 0.1 µM): 377 nM
- IC50 (second compound 0.316 µM): 361 nM
- IC50 (second compound 1 µM): 310 nM
SMILES: C=CC(=O)Nc1cc(Nc2nccc(-c3cn(C)c4ccccc34)n2)c(OC)cc1N(C)CCN(C)C + C=CC(=O)N1CCN(c2nc(OCC3CCCN3C)nc3c(F)c(-c4nc(N)cc(C)c4C(F)(F)F)c(Cl)cc23)C(C)C1
- viability, T/C [1]: 93.5%
- viability, T/C [2]: 90.7%
- viability, T/C [3]: 80.1%
- viability, T/C [4]: 82.9%
- viability, T/C [5]: 49.8%
- viability, T/C [6]: 38.9%
- viability, T/C [7]: 91.6%
- viability, T/C [8]: 84.5%
- viability, T/C [9]: 83.5%
- viability, T/C [10]: 76.4%
- viability, T/C [11]: 50.6%
- viability, T/C [12]: 38.1%
- viability, T/C [13]: 91.1%
- viability, T/C [14]: 88.2%
- viability, T/C [15]: 74.4%
- viability, T/C [16]: 67%
- viability, T/C [17]: 51.5%
- viability, T/C [18]: 46.8%
- viability, T/C [19]: 87.8%
- viability, T/C [20]: 84.5%
- viability, T/C [21]: 90.4%
- viability, T/C [22]: 75.8%
- viability, T/C [23]: 53.4%
- viability, T/C [24]: 34.1%
- viability, T/C [25]: 87%
- viability, T/C [26]: 94%
- viability, T/C [27]: 77.2%
- viability, T/C [28]: 70.2%
- viability, T/C [29]: 52%
- viability, T/C [30]: 35.5%
- viability, T/C [31]: 90.3%
- viability, T/C [32]: 78.7%
- viability, T/C [33]: 84.9%
- viability, T/C [34]: 71%
- viability, T/C [35]: 49.7%
- viability, T/C [36]: 32.5%

- IC50 (second compound 0.00316 µM): 129 nM
- IC50 (second compound 0.01 µM): 93.6 nM
- IC50 (second compound 0.0316 µM): 96.2 nM
- IC50 (second compound 0.1 µM): 133 nM
- IC50 (second compound 0.316 µM): 114 nM
- IC50 (second compound 1 µM): 118 nM
SMILES: CC(Nc1ccc2c(c1)OCCn1cc(N3C(=O)OCC3C(F)F)nc1-2)C(N)=O (stereo not drawn) + C=CC(=O)N1CCN(c2nc(OCC3CCCN3C)nc3c(F)c(-c4nc(N)cc(C)c4C(F)(F)F)c(Cl)cc23)C(C)C1
- viability, T/C [3]: 78.7%
- viability, T/C [4]: 51.4%
- viability, T/C [5]: 38%
- viability, T/C [6]: 24.7%
- viability, T/C (second compound 0.00316 µM, first compound 3.16 µM): 17.9%
- viability, T/C (second compound 0.00316 µM, first compound 10 µM): 9.53%
- viability, T/C [9]: 69%
- viability, T/C [10]: 49.3%
- viability, T/C [11]: 32.3%
- viability, T/C [12]: 25.1%
- viability, T/C (second compound 0.01 µM, first compound 3.16 µM): 19.7%
- viability, T/C (second compound 0.01 µM, first compound 10 µM): 10.9%
- viability, T/C [15]: 69.3%
- viability, T/C [16]: 49.5%
- viability, T/C [17]: 33.6%
- viability, T/C [18]: 23.1%
- viability, T/C (second compound 0.0316 µM, first compound 3.16 µM): 20.4%
- viability, T/C (second compound 0.0316 µM, first compound 10 µM): 9.06%
- viability, T/C [21]: 67.8%
- viability, T/C [22]: 57.8%
- viability, T/C [23]: 30%
- viability, T/C [24]: 23.1%
- viability, T/C (second compound 0.1 µM, first compound 3.16 µM): 15.4%
- viability, T/C (second compound 0.1 µM, first compound 10 µM): 10.2%
- viability, T/C [27]: 65.7%
- viability, T/C [28]: 54.2%
- viability, T/C [29]: 33.5%
- viability, T/C [30]: 24.3%
- viability, T/C (second compound 0.316 µM, first compound 3.16 µM): 17.4%
- viability, T/C (second compound 0.316 µM, first compound 10 µM): 8.73%
- viability, T/C [33]: 74.3%
- viability, T/C [34]: 45.4%
- viability, T/C [35]: 40.6%
- viability, T/C [36]: 26.5%
- viability, T/C (second compound 1 µM, first compound 3.16 µM): 17.9%
- viability, T/C (second compound 1 µM, first compound 10 µM): 8.86%

- IC50 (second compound 0.00316 µM): 173 nM
- IC50 (second compound 0.01 µM): 162 nM
- IC50 (second compound 0.0316 µM): 133 nM
- IC50 (second compound 0.1 µM): 121 nM
- IC50 (second compound 0.316 µM): 140 nM
- IC50 (second compound 1 µM): 138 nM
SMILES: O=C(c1ccc(F)c(F)c1Nc1ccc(I)cc1F)N1CC(O)([C@@H]2CCCCN2)C1 + C=CC(=O)N1CCN(c2nc(OCC3CCCN3C)nc3c(F)c(-c4nc(N)cc(C)c4C(F)(F)F)c(Cl)cc23)C(C)C1
- viability, T/C [1]: 85.4%
- viability, T/C [2]: 92%
- viability, T/C [3]: 77.5%
- viability, T/C [4]: 61%
- viability, T/C [5]: 38.4%
- viability, T/C [6]: 24.3%
- viability, T/C [7]: 87.5%
- viability, T/C [8]: 85.4%
- viability, T/C [9]: 73.2%
- viability, T/C [10]: 59.5%
- viability, T/C [11]: 37.9%
- viability, T/C [12]: 23.5%
- viability, T/C [13]: 83.4%
- viability, T/C [14]: 80.2%
- viability, T/C [15]: 71%
- viability, T/C [16]: 53.6%
- viability, T/C [17]: 36.8%
- viability, T/C [18]: 20.9%
- viability, T/C [19]: 89.6%
- viability, T/C [20]: 79.6%
- viability, T/C [21]: 68.6%
- viability, T/C [22]: 52.7%
- viability, T/C [23]: 35.9%
- viability, T/C [24]: 19.7%
- viability, T/C [25]: 84.5%
- viability, T/C [26]: 79.9%
- viability, T/C [27]: 68.3%
- viability, T/C [28]: 51.6%
- viability, T/C [29]: 42%
- viability, T/C [30]: 25.9%
- viability, T/C [31]: 88.8%
- viability, T/C [32]: 75.5%
- viability, T/C [33]: 70.8%
- viability, T/C [34]: 53.8%
- viability, T/C [35]: 38.5%
- viability, T/C [36]: 25.5%
